Measured values from patent publication US20090304692A1, “TRIAZINE COMPOUNDS AS PI3 KINASE AND MTOR INHIBITORS” (Wyeth, priority 2008, published 2009).
Values joined by “and” are separate entries in the source; they are usually repeats but may differ in a detail not shown here. Identical values can stand only once. Like-named read-outs stand apart in the source and are kept apart here.

What was measured:
Human mTOR (FLAG-TOR) = Human mTOR (FLAG-TOR) (Homo sapiens, UniProt P42345); experiment: mTOR kinase assay (DELFIA format, purified enzyme); format: biochemical; conditions: read-out: IC50 mTOR
[1] = system: human breast MDA-MB-361 tumor cell line; experiment: In vitro cell culture growth assay (MTS), MDA-MB-361; format: cell-based; conditions: Homo sapiens, three days after drug treatment, read-out: IC50 MDA-MB-361
[2] = system: human prostate PC3-mm2 tumor cell line; experiment: In vitro cell culture growth assay (MTS), PC3-mm2; format: cell-based; conditions: Homo sapiens, PC3MM2, 72 h, three days after drug treatment, read-out: IC50 PC3-mm2
PI3K-α = PI3K-α (Homo sapiens, UniProt P42336); experiment: PI3K-alpha fluorescence polarization assay
PI3K-γ = PI3K-γ (Homo sapiens, UniProt P48736); experiment: PI3K-gamma fluorescence polarization assay; conditions: read-out: IC50 PI3Kγ
[3] = 72 h, MTS cell growth assay, MDA-MB-361 cells
[4] = MTS cell growth assay, PC3-mm2 cells
[5] = MDA-MB-361, 72 h, MTS cell growth assay
[6] = MDA-MB-361, 72 h, MDA-MB-361 cells, MTS
[7] = MDA-MB-361, 72 h, MTS cell growth assay, MDA-MB-361 cells

PI3K-γ, sequence (P48736 whole entry, species assumed): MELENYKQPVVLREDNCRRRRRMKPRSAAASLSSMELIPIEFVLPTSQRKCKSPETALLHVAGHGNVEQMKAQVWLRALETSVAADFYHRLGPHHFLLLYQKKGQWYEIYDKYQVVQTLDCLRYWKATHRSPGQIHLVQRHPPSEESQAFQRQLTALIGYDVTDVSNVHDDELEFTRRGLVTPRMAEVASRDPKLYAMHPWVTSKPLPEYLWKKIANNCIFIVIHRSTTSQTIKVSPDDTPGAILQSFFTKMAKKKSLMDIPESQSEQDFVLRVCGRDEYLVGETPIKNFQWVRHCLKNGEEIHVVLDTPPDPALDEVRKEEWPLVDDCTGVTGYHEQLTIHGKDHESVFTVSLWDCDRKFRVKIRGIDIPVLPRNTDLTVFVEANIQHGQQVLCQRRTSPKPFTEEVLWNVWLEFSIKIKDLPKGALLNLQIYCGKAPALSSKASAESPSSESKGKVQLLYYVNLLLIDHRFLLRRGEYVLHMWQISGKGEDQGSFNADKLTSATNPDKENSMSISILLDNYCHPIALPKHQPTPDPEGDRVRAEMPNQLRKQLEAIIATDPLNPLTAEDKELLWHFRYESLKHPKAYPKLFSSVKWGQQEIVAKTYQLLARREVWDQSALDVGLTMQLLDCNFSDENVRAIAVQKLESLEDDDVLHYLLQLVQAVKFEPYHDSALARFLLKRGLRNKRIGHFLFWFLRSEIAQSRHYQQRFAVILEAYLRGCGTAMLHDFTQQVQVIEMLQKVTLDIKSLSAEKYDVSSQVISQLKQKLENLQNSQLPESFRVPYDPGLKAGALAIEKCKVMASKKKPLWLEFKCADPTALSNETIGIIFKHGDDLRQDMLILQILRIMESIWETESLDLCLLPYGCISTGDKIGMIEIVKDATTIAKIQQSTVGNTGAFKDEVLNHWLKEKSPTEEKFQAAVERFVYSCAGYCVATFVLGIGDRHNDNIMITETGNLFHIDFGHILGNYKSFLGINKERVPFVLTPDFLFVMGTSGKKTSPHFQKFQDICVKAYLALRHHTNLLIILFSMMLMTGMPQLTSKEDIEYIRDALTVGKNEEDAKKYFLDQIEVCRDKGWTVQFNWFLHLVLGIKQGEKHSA
PI3K-α, sequence (P42336 whole entry, species assumed): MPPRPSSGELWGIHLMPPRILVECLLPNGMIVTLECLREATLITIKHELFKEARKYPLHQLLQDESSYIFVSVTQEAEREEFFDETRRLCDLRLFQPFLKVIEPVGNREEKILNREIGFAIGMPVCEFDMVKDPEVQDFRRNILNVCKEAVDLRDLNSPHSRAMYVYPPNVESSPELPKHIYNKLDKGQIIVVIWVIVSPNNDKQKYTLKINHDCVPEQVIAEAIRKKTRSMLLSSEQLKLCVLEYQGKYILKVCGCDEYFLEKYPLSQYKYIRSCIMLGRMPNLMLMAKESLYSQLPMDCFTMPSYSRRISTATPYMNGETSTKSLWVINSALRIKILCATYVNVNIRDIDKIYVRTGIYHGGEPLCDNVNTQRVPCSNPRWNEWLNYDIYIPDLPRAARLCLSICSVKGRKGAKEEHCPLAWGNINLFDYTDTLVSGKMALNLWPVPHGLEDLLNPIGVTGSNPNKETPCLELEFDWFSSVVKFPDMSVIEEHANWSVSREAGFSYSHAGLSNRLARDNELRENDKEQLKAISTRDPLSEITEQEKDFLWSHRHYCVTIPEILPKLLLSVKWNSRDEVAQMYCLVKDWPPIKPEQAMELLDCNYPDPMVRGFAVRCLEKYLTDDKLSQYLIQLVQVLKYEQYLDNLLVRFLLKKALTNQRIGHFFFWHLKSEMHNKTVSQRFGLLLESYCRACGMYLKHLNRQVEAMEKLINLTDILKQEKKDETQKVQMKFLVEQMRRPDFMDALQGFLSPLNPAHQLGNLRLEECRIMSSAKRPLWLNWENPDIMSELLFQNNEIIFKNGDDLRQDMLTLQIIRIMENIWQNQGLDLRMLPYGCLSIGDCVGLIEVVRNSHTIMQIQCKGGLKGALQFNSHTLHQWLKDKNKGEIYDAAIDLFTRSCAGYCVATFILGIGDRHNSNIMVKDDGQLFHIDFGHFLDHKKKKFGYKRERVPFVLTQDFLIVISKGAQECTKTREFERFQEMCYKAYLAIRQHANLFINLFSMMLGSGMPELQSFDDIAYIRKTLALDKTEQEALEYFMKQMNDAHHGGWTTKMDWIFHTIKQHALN
PI3K-α, sequence (P27986 whole entry partner, species assumed): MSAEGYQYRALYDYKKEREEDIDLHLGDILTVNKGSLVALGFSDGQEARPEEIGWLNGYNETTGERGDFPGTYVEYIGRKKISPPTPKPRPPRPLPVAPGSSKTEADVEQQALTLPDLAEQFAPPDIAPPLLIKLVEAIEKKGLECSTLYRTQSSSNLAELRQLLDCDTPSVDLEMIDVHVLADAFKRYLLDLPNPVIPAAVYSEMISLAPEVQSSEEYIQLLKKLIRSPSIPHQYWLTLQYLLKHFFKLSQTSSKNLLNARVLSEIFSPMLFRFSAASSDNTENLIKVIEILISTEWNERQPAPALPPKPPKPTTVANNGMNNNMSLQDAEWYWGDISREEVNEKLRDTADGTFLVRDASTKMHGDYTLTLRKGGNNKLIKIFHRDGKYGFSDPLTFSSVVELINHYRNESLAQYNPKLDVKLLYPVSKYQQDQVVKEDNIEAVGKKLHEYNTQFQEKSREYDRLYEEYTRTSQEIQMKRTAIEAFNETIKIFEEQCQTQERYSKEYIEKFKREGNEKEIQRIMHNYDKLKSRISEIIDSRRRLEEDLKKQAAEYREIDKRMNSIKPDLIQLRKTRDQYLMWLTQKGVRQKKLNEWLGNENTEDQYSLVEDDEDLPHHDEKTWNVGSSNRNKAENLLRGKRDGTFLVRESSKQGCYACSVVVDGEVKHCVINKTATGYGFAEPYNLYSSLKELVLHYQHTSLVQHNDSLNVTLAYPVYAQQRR
Human mTOR (FLAG-TOR), sequence (P42345 1360-2549 limits assumed): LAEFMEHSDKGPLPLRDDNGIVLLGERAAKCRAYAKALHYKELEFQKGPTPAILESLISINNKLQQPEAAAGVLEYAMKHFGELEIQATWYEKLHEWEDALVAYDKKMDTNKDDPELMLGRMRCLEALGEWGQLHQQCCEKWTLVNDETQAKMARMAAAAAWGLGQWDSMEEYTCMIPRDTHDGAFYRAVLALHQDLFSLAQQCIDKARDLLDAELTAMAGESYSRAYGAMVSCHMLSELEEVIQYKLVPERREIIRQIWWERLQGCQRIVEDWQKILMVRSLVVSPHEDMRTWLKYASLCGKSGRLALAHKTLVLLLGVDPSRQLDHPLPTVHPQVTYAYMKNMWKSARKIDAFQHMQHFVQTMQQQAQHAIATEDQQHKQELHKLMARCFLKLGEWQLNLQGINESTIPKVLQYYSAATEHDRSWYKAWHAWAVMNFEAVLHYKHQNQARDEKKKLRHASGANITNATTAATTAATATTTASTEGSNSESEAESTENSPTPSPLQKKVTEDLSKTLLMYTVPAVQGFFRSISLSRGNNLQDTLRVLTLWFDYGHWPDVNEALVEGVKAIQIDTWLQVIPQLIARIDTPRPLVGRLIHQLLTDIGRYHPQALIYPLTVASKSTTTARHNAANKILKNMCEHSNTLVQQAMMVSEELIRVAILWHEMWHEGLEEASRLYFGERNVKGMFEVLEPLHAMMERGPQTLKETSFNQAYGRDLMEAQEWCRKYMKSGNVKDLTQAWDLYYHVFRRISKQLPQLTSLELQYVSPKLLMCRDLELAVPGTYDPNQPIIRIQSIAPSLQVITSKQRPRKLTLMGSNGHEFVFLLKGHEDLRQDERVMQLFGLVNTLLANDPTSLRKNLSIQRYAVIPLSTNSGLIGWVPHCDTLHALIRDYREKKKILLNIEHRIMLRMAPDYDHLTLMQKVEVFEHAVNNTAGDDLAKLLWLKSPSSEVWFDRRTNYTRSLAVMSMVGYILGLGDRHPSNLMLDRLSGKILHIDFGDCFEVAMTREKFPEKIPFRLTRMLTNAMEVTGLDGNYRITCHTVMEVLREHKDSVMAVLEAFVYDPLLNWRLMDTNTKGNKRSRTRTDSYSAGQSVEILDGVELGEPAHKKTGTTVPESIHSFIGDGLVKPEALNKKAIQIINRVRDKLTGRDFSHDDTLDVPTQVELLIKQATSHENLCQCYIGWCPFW

Structure (SMILES): CN(C)CCNC(=O)c1ccc(NC(=O)Nc2ccc(-c3nc(N4CCOCC4)nc(N4C5CCC4COC5)n3)cc2)cc1 [Example 694, N-[2-(dimethylamino)ethyl]-4-[({4-[4-morpholin-4-yl-6-(3-oxa-8-azabicyclo[3.2.1]oct-8-yl)-1,3,5-triazin-2-yl]phenyl}carbamoyl)amino]benzamide]
- IC50 (Human mTOR (FLAG-TOR)): 0.245 nM
- IC50 [1, 3]: < 3 nM
- IC50 [2, 4]: 11 nM
- IC50 (PI3K-α; read-out: IC50 PI3Kα): 2 nM
- IC50 (PI3K-γ): 40 nM

Structure (SMILES): O=C(Nc1ccncc1)Nc1ccc(-c2nc(-c3cnc4ccccc4c3)nc(N3CCOCC3)n2)cc1 [Example 137, 1-[4-(4-morpholin-4-yl-6-quinolin-3-yl-1,3,5-triazin-2-yl)phenyl]-3-pyridin-4-ylurea]
- IC50 (Human mTOR (FLAG-TOR)): 8.55 nM
- IC50 [1, 5]: 582 nM
- IC50 [2, 4]: 551 nM
- IC50 ([2]; MTS cell growth assay): 551 nM
- IC50 (PI3K-α; read-out: IC50 PI3Kα): 9 nM
- IC50 (PI3K-α; read-out: IC50 PI3Kα, listed as 712): 9.5 nM
- IC50 (PI3K-γ): 117 nM

Structure (SMILES): CN1CCN(C(=O)c2ccc(NC(=O)Nc3ccc(-c4nc(N5CCOCC5)nc(N5CC6CCC5CO6)n4)cc3)cc2)CC1 (stereo not shown) [Example 813, 1-{4-[(4-methylpiperazin-1-yl)carbonyl]phenyl}-3-{4-[4-morpholin-4-yl-6-(2-oxa-5-azabicyclo[2.2.2]oct-5-yl)-1,3,5-triazin-2-yl]phenyl}urea]
- IC50 (Human mTOR (FLAG-TOR)): 1.9 nM
- IC50 [1, 6]: < 3.2 nM
- IC50 ([2]; PC3-mm2 cells, MTS): 24 nM
- IC50 (PI3K-α; read-out: IC50 PI3Kα): 3.1 nM
- IC50 (PI3K-γ): 30 nM

Structure (SMILES): CN(C)C(=O)N1CCN(c2nc(-c3ccc(NC(=O)Nc4ccc(C(=O)Nc5ccnnc5)cc4)cc3)nc(N3CCOCC3)n2)CC1 [Example 644, N,N-dimethyl-4-{4-morpholin-4-yl-6-[4-({[4-(pyridazin-4-ylcarbamoyl)phenyl]carbamoyl}amino)phenyl]-1,3,5-triazin-2-yl}piperazine-1-carboxamide]
- IC50 (Human mTOR (FLAG-TOR)): 1 nM
- IC50 [1, 3]: 51 nM
- IC50 [2, 4]: 185 nM
- IC50 (PI3K-α; read-out: IC50 PI3Kα): 7.8 nM
- IC50 (PI3K-γ): 59.5 nM

Structure (SMILES): CN(C)C1CCN(C(=O)Nc2ccc(NC(=O)Nc3ccc(-c4nc(N5CCOCC5)nc(N5CCOCC5)n4)cc3)cc2)CC1 [Example 499, 4-(dimethylamino)-N-[4-({[4-(4,6-dimorpholin-4-yl-1,3,5-triazin-2-yl)phenyl]carbamoyl}amino)phenyl]piperidine-1-carboxamide]
- IC50 (Human mTOR (FLAG-TOR)): 2.2 nM
- IC50 [1, 7]: 21 nM
- IC50 [2, 4]: 31 nM
- IC50 (PI3K-α; read-out: IC50 PI3Kα): < 1.9 nM
- IC50 (PI3K-γ): 4.5 nM

Structure (SMILES): O=C(Nc1ccc(C(=O)NCCc2ccccn2)cc1)Nc1ccc(-c2nc(N3CCOCC3)nc(N3C4COCC3COC4)n2)cc1 [Example 778, 4-[({4-[4-(3,7-dioxa-9-azabicyclo[3.3.1]non-9-yl)-6-morpholin-4-yl-1,3,5-triazin-2-yl]phenyl}carbamoyl)amino]-N-(2-pyridin-2-ylethyl)benzamide]
- IC50 (Human mTOR (FLAG-TOR)): 0.28 nM
- IC50 [1, 3]: 17 nM
- IC50 [2, 4]: 29 nM
- IC50 (PI3K-α; read-out: IC50 PI3Kα): 11.5 nM
- IC50 (PI3K-γ): 126 nM

Structure (SMILES): CCN1CCN(C(=O)c2ccc(NC(=O)Nc3ccc(-c4nc(N5CCOCC5)nc(N5CC6CCC5CO6)n4)cc3)cc2)CC1 (stereo not shown) [Example 812, 1-{4-[(4-ethylpiperazin-1-yl)carbonyl]phenyl}-3-{4-[4-morpholin-4-yl-6-(2-oxa-5-azabicyclo[2.2.2]oct-5-yl)-1,3,5-triazin-2-yl]phenyl}urea]
- IC50 (Human mTOR (FLAG-TOR)): 2 nM
- IC50 [1, 6]: 3 nM
- IC50 ([2]; PC3-mm2 cells, MTS): 23 nM
- IC50 (PI3K-α; read-out: IC50 PI3Kα): 2.8 nM
- IC50 (PI3K-γ): 30.5 nM

Structure (SMILES): O=C(Nc1ccccc1)Nc1ccc(-c2nc(N3CCOCC3)nc(N3CC4CCC(C3)O4)n2)cc1 [Example 23, 1-{4-[4-morpholin-4-yl-6-(8-oxa-3-azabicyclo[3.2.1]oct-3-yl)-1,3,5-triazin-2-yl]phenyl}-3-phenylurea]
- IC50 (Human mTOR (FLAG-TOR)): 2.05 nM
- IC50 [1, 5]: 104 nM
- IC50 ([2]; MTS cell growth assay): 147 nM
- IC50 (PI3K-α; read-out: IC50 PI3Kα): 18 nM
- IC50 (PI3K-γ): 51 nM

Structure (SMILES): C[C@H]1COCCN1c1nc(-c2ccc(NC(=O)Nc3ccc(C(=O)N(C)CCN(C)C)cc3)cc2)nc(N2CCOC[C@@H]2C)n1 [Example 564, 4-{[(4-{4,6-bis[(3S)-3-methylmorpholin-4-yl]-1,3,5-triazin-2-yl}phenyl)carbamoyl]amino}-N-[2-(dimethylamino)ethyl]-N-methylbenzamide]
- IC50 (Human mTOR (FLAG-TOR)): 1 nM
- IC50 [1, 3]: 1 nM
- IC50 [2, 4]: 7 nM
- IC50 (PI3K-α; read-out: IC50 PI3Kα): 0.6 nM
- IC50 (PI3K-γ): 16.5 nM

Structure (SMILES): CN(C)CCN(C)C(=O)c1ccc(NC(=O)Nc2ccc(-c3nc(-c4ccccc4)nc(N4CCOCC4)n3)cc2)cc1 [Example 539, N-[2-(dimethylamino)ethyl]-N-methyl-4-({[4-(4-morpholin-4-yl-6-phenyl-1,3,5-triazin-2-yl)phenyl]carbamoyl}amino)benzamide]
- IC50 (Human mTOR (FLAG-TOR)): 0.0085 nM
- IC50 [1, 3]: 9 nM
- IC50 [2, 4]: 161 nM
- IC50 (PI3K-α; read-out: IC50 PI3Kα): 1.1 nM
- IC50 (PI3K-γ): 16 nM

Structure (SMILES): CNC(=O)c1ccc(NC(=O)Nc2ccc(-c3nc(N4CCOCC4)nc(N4C5CCC4COC5)n3)cc2)cc1 [Example 696, N-methyl-4-[({4-[4-morpholin-4-yl-6-(3-oxa-8-azabicyclo[3.2.1]oct-8-yl)-1,3,5-triazin-2-yl]phenyl}carbamoyl)amino]benzamide]
- IC50 (Human mTOR (FLAG-TOR)): 0.275 nM
- IC50 [1, 7]: 13 nM
- IC50 [2, 4]: 13 nM
- IC50 (PI3K-α; read-out: IC50 PI3Kα): 4.5 nM
- IC50 (PI3K-γ): 73.5 nM

Structure (SMILES): CCCCc1nc(-c2ccc(NC(=O)Nc3ccc(C=O)cc3)cc2)nc(N2CCOCC2)n1 [Example 255, 1-[4-(4-butyl-6-morpholin-4-yl-1,3,5-triazin-2-yl)phenyl]-3-(4-formylphenyl)urea]
- IC50 (Human mTOR (FLAG-TOR)): 16 nM
- IC50 [1, 5]: 174 nM
- IC50 ([2]; MTS cell growth assay): 328 nM
- IC50 (PI3K-α; read-out: IC50 PI3Kα): 48 nM
- IC50 (PI3K-γ): 85 nM

Structure (SMILES): O=C(Nc1ccc(-c2nc(N3CCOCC3)nc(N3CCOCC3)n2)cc1)Nc1ccc(C(F)(F)F)cc1 [Example 53, 1-[4-(4,6-dimorpholin-4-yl-1,3,5-triazin-2-yl)phenyl]-3-[4-(trifluoromethyl)phenyl]urea]
- IC50 (Human mTOR (FLAG-TOR)): 24 nM and 18 nM
- IC50 [1, 5]: 662 nM
- IC50 ([2]; MTS cell growth assay): 987 nM
- IC50 (PI3K-α; read-out: IC50 PI3Kα): 45 nM
- IC50 (PI3K-γ): 403 nM

Structure (SMILES): COCCNC(=O)c1ccc(NC(=O)Nc2ccc(-c3nc(N4CCCOCC4)nc(N4CCOCC4)n3)cc2)cc1 [Example 574, N-(2-methoxyethyl)-4-[({4-[4-morpholin-4-yl-6-(1,4-oxazepan-4-yl)-1,3,5-triazin-2-yl]phenyl}carbamoyl)amino]benzamide]
- IC50 (Human mTOR (FLAG-TOR)): 6 nM
- IC50 [1, 3]: 6 nM
- IC50 [2, 4]: 25 nM
- IC50 (PI3K-α; read-out: IC50 PI3Kα): 1 nM
- IC50 (PI3K-γ): 12.5 nM

Structure (SMILES): CCCCc1nc(-c2ccc(NC(=O)Nc3ccncc3)cc2)nc(N2CCOCC2)n1 [Example 186, 1-[4-(4-butyl-6-morpholin-4-yl-1,3,5-triazin-2-yl)phenyl]-3-pyridin-4-ylurea]
- IC50 (Human mTOR (FLAG-TOR)): 6 nM
- IC50 [1, 5]: 473 nM
- IC50 ([2]; MTS cell growth assay): 703 nM
- IC50 (PI3K-α; read-out: IC50 PI3Kα): 28 nM
- IC50 (PI3K-γ): 221 nM

Structure (SMILES): CCN1CCN(C(=O)c2ccc(NC(=O)Nc3ccc(-c4nc(N5CCOCC5)nc(N5C6CCC5COC6)n4)cc3)cc2)CC1 [Example 803, 1-{4-[(4-ethylpiperazin-1-yl)carbonyl]phenyl}-3-{4-[4-morpholin-4-yl-6-(3-oxa-8-azabicyclo[3.2.1]oct-8-yl)-1,3,5-triazin-2-yl]phenyl}urea]
- IC50 (Human mTOR (FLAG-TOR)): 0.19 nM
- IC50 [1, 6]: 1 nM
- IC50 ([2]; PC3-mm2 cells, MTS): 6 nM
- IC50 (PI3K-α; read-out: IC50 PI3Kα): 3 nM
- IC50 (PI3K-γ): 29 nM

Structure (SMILES): O=C(Nc1ccc(C(=O)N2CCOCC2)cc1)Nc1ccc(-c2nc(N3CCOCC3)nc(N3C4CCC3COC4)n2)cc1 [Example 763, 1-[4-(morpholin-4-ylcarbonyl)phenyl]-3-{4-[4-morpholin-4-yl-6-(3-oxa-8-azabicyclo[3.2.1]oct-8-yl)-1,3,5-triazin-2-yl]phenyl}urea]
- IC50 (Human mTOR (FLAG-TOR)): 0.445 nM
- IC50 [1, 7]: 4 nM
- IC50 [2, 4]: 7 nM
- IC50 (PI3K-α; read-out: IC50 PI3Kα): 3 nM
- IC50 (PI3K-γ): 24 nM

Structure (SMILES): CCc1nc(-c2ccc(NC(=O)Nc3ccc(C(=O)N4CCN(C)CC4)cc3)cc2)nc(N2CCOCC2)n1 [Example 236, 1-[4-(4-ethyl-6-morpholin-4-yl-1,3,5-triazin-2-yl)phenyl]-3-{4-[(4-methylpiperazin-1-yl)carbonyl]phenyl}urea]
- IC50 (Human mTOR (FLAG-TOR)): 11 nM and 9.4 nM
- IC50 [1, 7]: 22.3 nM
- IC50 [1, 5]: 22.3 nM
- IC50 [2, 4]: 67 nM
- IC50 ([2]; MTS cell growth assay): 67 nM
- IC50 (PI3K-α; read-out: IC50 PI3Kα): 3 nM
- IC50 (PI3K-α; read-out: IC50 PI3Kα, listed as 536): 1.5 nM
- IC50 (PI3K-γ): 15 nM
- IC50 (PI3K-γ; listed as 536): 13 nM

Structure (SMILES): CN(C)CCNC(=O)c1ccc(NC(=O)Nc2ccc(-c3nc(C4=CCOCC4)nc(N4CCOCC4)n3)cc2)cc1 [Example 284, 4-[({4-[4-(3,6-dihydro-2H-pyran-4-yl)-6-morpholin-4-yl-1,3,5-triazin-2-yl]phenyl}carbamoyl)amino]-N-[2-(dimethylamino)ethyl]benzamide]
- IC50 (Human mTOR (FLAG-TOR)): 0.9 nM and 0.97 nM
- IC50 [1, 5]: 12 nM
- IC50 [2, 4]: 36.3 nM
- IC50 ([2]; MTS cell growth assay): 36.3 nM
- IC50 (PI3K-α): < 1.9 nM
- IC50 (PI3K-α; read-out: IC50 PI3Kα): 0.7 nM
- IC50 (PI3K-γ): 12 nM
- IC50 (PI3K-γ; listed as 508): 12.5 nM

Structure (SMILES): CCCCc1nc(-c2ccc(NC(=O)Nc3ccc(C(=O)N4CCN(C)CC4)cc3)cc2)nc(N2CCOCC2)n1 [Example 232, 1-[4-(4-butyl-6-morpholin-4-yl-1,3,5-triazin-2-yl)phenyl]-3-{4-[(4-methylpiperazin-1-yl)carbonyl]phenyl}urea]
- IC50 (Human mTOR (FLAG-TOR)): 83 nM
- IC50 [1, 5]: 38 nM
- IC50 ([2]; MTS cell growth assay): 177 nM
- IC50 (PI3K-α; read-out: IC50 PI3Kα): 6 nM
- IC50 (PI3K-γ): 37 nM
